The source of these data is patent US8889671B2, “Compounds and methods for treating bacterial infections” (AstraZeneca AB, priority 2013, dated 2014).

Each structure is given as a SMILES string. In brackets after ≈: the same amount, converted by molar mass. Where two headings read alike, the source gives them in different places.

The target in assay [1] is Escherichia coli DNA gyrase A/B tetramer (Escherichia coli (strain K12), UniProt P0AES4+P0AES6). The experiment in a line: DNA gyrase supercoiling activity fluorescence polarisation assay. Particulars: Eco Gyr FP Mean IC50, E. coli DNA gyrase supercoiling, 0.3 mM ATP. The class given is biochemical. The method, boiled down:
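IC50 derived by nonlinear regression from BODIPY-FL fluorescence anisotropy, read 60 min after quenching with labelled triplex-forming probe (pH 3.5). Reaction: 5 nM gyrase tetramer, 130 micrograms/mL relaxed plasmid, 0.3 mM ATP, 4 mM MgCl2, pH 7.5, typically 30 min at ambient temperature, 5-10 compound concentrations.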
(Polarisation of emitted light reports the rotation of a fluorescent probe.)

The test system of another assay is Streptococcus pneumoniae. The assay can be described thus: Susceptibility testing (MIC) Assay 1, broth microdilution. The class given is cell-based. (Broth dilution looks for growth in wells or tubes with falling amounts of substance.)
The next assay relates to Staphylococcus aureus. The assay is described as above. The class given is cell-based. The note with it: Staphylococcus aureus.
For the next assay, the system named is Streptococcus pyogenes. The description is as above. Type of assay: cell-based. The note with it: Streptococcus pyogenes, Streptococcus pyrgenes, in vivo strain; read-out: Spy MIC.
The next assay concerns Haemophilus influenzae. The experiment in a line: Susceptibility testing (MIC) Assay 2, broth microdilution. Type of assay: cell-based. The note with it: ATCC51907, Haemophilus influenzae, ATCC 51907, in vivo strain, read-out: Hin MIC.
A further assay has as its system Klebsiella pneumoniae. The description is as above. The class given is cell-based. Particulars: clinical isolate, mucoid, read-out: Kpn MIC.
In another assay the test system is Escherichia coli. Described as above. Type of assay: cell-based. The note with it: K12, read-out: Eco MIC.
The subject of another assay is Pseudomonas aeruginosa. Described as above. The class given is cell-based. The note with it: PAO1, read-out: Pae MIC.
[2] abbreviates: in vivo strain (footnote b), read-out: Spn(b) MIC.
[3] abbreviates: in vivo strain (footnote c), read-out: Spn(c) MIC.
[4] abbreviates: Staphylococcus aureus in vivo strain, MSQS, read-out: Sau(d) MIC.
[5] abbreviates: in vivo strain, MRQR, read-out: Sau(e) MIC.

Regarding `C[C@@H]1CN2c3c(cc4c(N5C(=O)OC[C@H]5c5ncccn5)noc4c3F)CC3(C(=O)NC(=O)NC3=O)[C@H]2[C@H](C)O1` [Example 63, (2R,4S,4aS)-11-Fluoro-2,4-dimethyl-8-((R)-2-oxo-4-(pyrimidin-2-yl)oxazolidin-3-yl)-2,4,4a,6-tetrahydro-1H,1′H-spiro[isoxazolo[4,5-g][1,4]oxazino[4,3-a]quinoline-5,5′-pyrimidine]-2′,4′,6′(3′H)-trione], inhibition in assay [1] was half-maximal at 380 nM (IC50). In addition, the MIC is 0.39 µM (≈ 0.215 µg/mL) with Streptococcus pneumoniae (setting [2]); 0.39 µM (≈ 0.215 µg/mL) with Streptococcus pneumoniae (setting [3]); 0.78 µM (≈ 0.43 µg/mL) in the assay on Staphylococcus aureus (setting [4]); 3.1 µM (≈ 1.71 µg/mL) in the assay on Staphylococcus aureus (setting [5]); over 200 µM in the assay with Staphylococcus aureus (serum, read-out: Sau(f) MIC); 0.39 µM (≈ 0.215 µg/mL) in the assay on Streptococcus pyogenes. Also, the MIC in the assay with Haemophilus influenzae is 0.39 µM (≈ 0.215 µg/mL); in the assay with Klebsiella pneumoniae it was over 200 µM; with Escherichia coli, 100 µM (≈ 55.1 µg/mL); in the assay on Pseudomonas aeruginosa, over 200 µM.

Turning to `C[C@@H]1CN2c3c(cc4c(N5C(=O)OC[C@@H]5c5ncccn5)noc4c3F)CC3(C(=O)NC(=O)NC3=O)[C@H]2[C@H](C)O1` [Example 64, (2R,4S,4aS)-11-fluoro-2,4-dimethyl-8-((S)-2-oxo-4-(pyrimidin-2-yl)oxazolidin-3-yl)-2,4,4a,6-tetrahydro-1H,1′H-spiro[isoxazolo[4,5-g][1,4]oxazino[4,3-a]quinoline-5,5′-pyrimidine]-2′,4′,6′(3′H)-trione], the IC50 (commonly the concentration that gives 50% inhibition) in assay [1] is over 2100 nM. In addition, the MIC is 12 µM (≈ 6.62 µg/mL) in the assay with Streptococcus pneumoniae (setting [2]); 6.2 µM (≈ 3.42 µg/mL) in the assay on Streptococcus pneumoniae (setting [3]); 6.2 µM (≈ 3.42 µg/mL) with Staphylococcus aureus (setting [4]); 25 µM (≈ 13.8 µg/mL) with Staphylococcus aureus (setting [5]); 25 µM (≈ 13.8 µg/mL) in the assay with Staphylococcus aureus (serum, read-out: Sau(f) MIC); 6.2 µM (≈ 3.42 µg/mL) in the assay with Streptococcus pyogenes. For the same compound, the MIC is 3.1 µM (≈ 1.71 µg/mL) in the assay on Haemophilus influenzae, over 200 µM in the assay with Klebsiella pneumoniae, over 200 µM in the assay on Escherichia coli and over 200 µM in the assay on Pseudomonas aeruginosa.

For `C#C[C@H]1COC(=O)N1c1noc2c(F)c3c(cc12)CC1(C(=O)NC(=O)NC1=O)[C@H]1[C@H](C)O[C@H](C)CN31` [Example 65], in assay [1], the IC50 amounted to 120 nM. Also, the MIC turned out to be 0.78 µM (≈ 0.388 µg/mL) in the assay on Streptococcus pneumoniae (setting [2]); 1.6 µM (≈ 0.796 µg/mL) with Streptococcus pneumoniae (setting [3]); 0.39 µM (≈ 0.194 µg/mL) in the assay with Staphylococcus aureus (setting [4]); 1.6 µM (≈ 0.796 µg/mL) with Staphylococcus aureus (setting [5]); 1.6 µM (≈ 0.796 µg/mL) in the assay with Staphylococcus aureus (serum, read-out: Sau(f) MIC); 0.78 µM (≈ 0.388 µg/mL) in the assay with Streptococcus pyogenes. Further, the MIC is 0.78 µM (≈ 0.388 µg/mL) in the assay with Haemophilus influenzae, 200 µM (≈ 99.5 µg/mL) with Klebsiella pneumoniae, 3.1 µM (≈ 1.54 µg/mL) with Escherichia coli and over 200 µM in the assay on Pseudomonas aeruginosa.

With `C[C@@H]1CN2c3c(cc4c(N5C(=O)OC[C@@H]5C)noc4c3Cl)CC3(C(=O)NC(=O)NC3=O)[C@H]2[C@H](C)O1` [Example 66, (2R,4S,4aS)-11-Chloro-2,4-dimethyl-8-((S)-4-methyl-2-oxooxazolidin-3-yl)-2,4,4a,6-tetrahydro-1H, 1′H-spiro[isoxazolo[4,5-g][1,4]oxazino[4,3-a]quinoline-5,5′-pyrimidine]-2′,4′,6′(3′H)-trione], the half-maximal inhibitory concentration (IC50) in assay [1] was 170 nM. For the same compound, the MIC in the assay with Streptococcus pneumoniae (setting [2]) was 0.39 µM (≈ 0.197 µg/mL); in the assay with Streptococcus pneumoniae (setting [3]), 0.78 µM (≈ 0.393 µg/mL); in the assay on Staphylococcus aureus (setting [4]), 0.39 µM (≈ 0.197 µg/mL); in the assay on Staphylococcus aureus (setting [5]) it was 0.78 µM (≈ 0.393 µg/mL); in the assay on Staphylococcus aureus (serum, read-out: Sau(f) MIC), 0.78 µM (≈ 0.393 µg/mL); in the assay with Streptococcus pyogenes, 0.39 µM (≈ 0.197 µg/mL). The MIC with Haemophilus influenzae was 0.78 µM (≈ 0.393 µg/mL); in the assay with Klebsiella pneumoniae, 100 µM (≈ 50.4 µg/mL); in the assay with Escherichia coli, 6.2 µM (≈ 3.12 µg/mL); in the assay on Pseudomonas aeruginosa, over 200 µM.

With `C[C@@H]1CN2c3c(cc4c(N5C(=O)OC[C@@H]5c5ncnn5C)noc4c3F)CC3(C(=O)NC(=O)NC3=O)[C@H]2[C@H](C)O1` [Example 68, (2R,4S,4aS)-11-Fluoro-2,4-dimethyl-8-((S)-4-(1-methyl-1H-1,2,4-triazol-5-yl)-2-oxooxazolidin-3-yl)-2,4,4a,6-tetrahydro-1H,1′H-spiro[isoxazolo[4,5-g][1,4]oxazino[4,3-a]quinoline-5,5′-pyrimidine]-2′,4′,6′(3′H)-trione], in assay [1], half-maximal inhibition (IC50) was put at 220 nM. Further, the MIC with Streptococcus pneumoniae (setting [2]) came to 3.1 µM (≈ 1.72 µg/mL); in the assay on Streptococcus pneumoniae (setting [3]), 6.2 µM (≈ 3.44 µg/mL); in the assay with Staphylococcus aureus (setting [4]) it was 12 µM (≈ 6.65 µg/mL); with Staphylococcus aureus (setting [5]), 25 µM (≈ 13.9 µg/mL); in the assay with Staphylococcus aureus (serum, read-out: Sau(f) MIC), 12 µM (≈ 6.65 µg/mL); with Streptococcus pyogenes, 3.1 µM (≈ 1.72 µg/mL). The MIC is 1.6 µM (≈ 0.887 µg/mL) in the assay on Haemophilus influenzae, over 200 µM in the assay on Klebsiella pneumoniae, 200 µM (≈ 111 µg/mL) in the assay on Escherichia coli and over 200 µM with Pseudomonas aeruginosa.

In the case of `C[C@@H]1CN2c3c(cc4c(N5C(=O)OC[C@H]5c5ncnn5C)noc4c3F)CC3(C(=O)NC(=O)NC3=O)[C@H]2[C@H](C)O1` [Example 69, (2R,4S,4aS)-11-Fluoro-2,4-dimethyl-8-((R)-4-(1-methyl-1H-1,2,4-triazol-5-yl)-2-oxooxazolidin-3-yl)-2,4,4a,6-tetrahydro-1H,1′H-spiro[isoxazolo[4,5-g][1,4]oxazino[4,3-a]quinoline-5,5′-pyrimidine]-2′,4′,6′(3′H)-trione], the IC50 in assay [1] is 600 nM. Moreover, the MIC is 12 µM (≈ 6.65 µg/mL) in the assay on Streptococcus pneumoniae (setting [2]); 12 µM (≈ 6.65 µg/mL) in the assay on Streptococcus pneumoniae (setting [3]); 12 µM (≈ 6.65 µg/mL) in the assay with Staphylococcus aureus (setting [4]); 25 µM (≈ 13.9 µg/mL) in the assay with Staphylococcus aureus (setting [5]); 12 µM (≈ 6.65 µg/mL) in the assay with Staphylococcus aureus (serum, read-out: Sau(f) MIC); 3.1 µM (≈ 1.72 µg/mL) with Streptococcus pyogenes. Besides, the MIC is 3.1 µM (≈ 1.72 µg/mL) in the assay on Haemophilus influenzae, over 200 µM in the assay on Klebsiella pneumoniae, over 200 µM in the assay on Escherichia coli and over 200 µM with Pseudomonas aeruginosa.

As for `C[C@@H]1CN2c3c(cc4c(N5C(=O)OC[C@@H]5[C@H](C)O)noc4c3F)CC3(C(=O)NC(=O)NC3=O)[C@H]2[C@H](C)O1` [Example 70], the IC50 in assay [1] was determined as 610 nM. Also, the MIC with Streptococcus pneumoniae (setting [2]) was found to be 1.6 µM (≈ 0.828 µg/mL); in the assay with Streptococcus pneumoniae (setting [3]) it was 3.1 µM (≈ 1.6 µg/mL); with Staphylococcus aureus (setting [4]), 12 µM (≈ 6.21 µg/mL); in the assay on Staphylococcus aureus (setting [5]), 50 µM (≈ 25.9 µg/mL); in the assay on Staphylococcus aureus (serum, read-out: Sau(f) MIC) it was 25 µM (≈ 12.9 µg/mL); with Streptococcus pyogenes, 1.6 µM (≈ 0.828 µg/mL). Also, the MIC is 1.6 µM (≈ 0.828 µg/mL) in the assay on Haemophilus influenzae, over 200 µM with Klebsiella pneumoniae, 200 µM (≈ 103 µg/mL) in the assay on Escherichia coli and over 200 µM in the assay with Pseudomonas aeruginosa.

`C[C@@H]1CN2c3c(cc4c(N5C(=O)OC[C@@H]5CC#N)noc4c3F)CC3(C(=O)NC(=O)NC3=O)[C@H]2[C@H](C)O1` [Example 71, {(4S)-3-[(2R,4S,4aS)-11-Fluoro-2,4-dimethyl-2′,4′,6′-trioxo-1,1′,2,3′,4,4′,4a,6′-octahydro-2′H,6H-spiro[1,4-oxazino[4,3-a][1,2]oxazolo[4,5-g]quinoline-5,5′-pyrimidin]-8-yl]-2-oxo-1,3-oxazolidin-4-yl}acetonitrile]: the IC50 in assay [1] stood at 160 nM. In addition, the MIC in the assay with Streptococcus pneumoniae (setting [2]) worked out at 1.6 µM (≈ 0.82 µg/mL); in the assay with Streptococcus pneumoniae (setting [3]), 1.6 µM (≈ 0.82 µg/mL); in the assay with Staphylococcus aureus (setting [4]), 3.1 µM (≈ 1.59 µg/mL); in the assay with Staphylococcus aureus (setting [5]) it was 6.2 µM (≈ 3.18 µg/mL); in the assay with Staphylococcus aureus (serum, read-out: Sau(f) MIC) it was 3.1 µM (≈ 1.59 µg/mL); in the assay on Streptococcus pyogenes, 1.6 µM (≈ 0.82 µg/mL). The MIC in the assay on Haemophilus influenzae is 1.6 µM (≈ 0.82 µg/mL); in the assay with Klebsiella pneumoniae, over 200 µM; in the assay on Escherichia coli, 50 µM (≈ 25.6 µg/mL); in the assay on Pseudomonas aeruginosa, over 200 µM.

The compound `C[C@@H]1CN2c3c(cc4c(N5C(=O)OC[C@@H]5[C@@H](O)CO)noc4c3F)CC3(C(=O)NC(=O)NC3=O)[C@H]2[C@H](C)O1` [Example 72] showed an IC50 in assay [1] of 290 nM. Moreover, the MIC with Streptococcus pneumoniae (setting [2]) was determined as 0.78 µM (≈ 0.416 µg/mL); with Streptococcus pneumoniae (setting [3]) it was 3.1 µM (≈ 1.65 µg/mL); with Staphylococcus aureus (setting [4]), 25 µM (≈ 13.3 µg/mL); in the assay on Staphylococcus aureus (setting [5]) it was 50 µM (≈ 26.7 µg/mL); in the assay with Staphylococcus aureus (serum, read-out: Sau(f) MIC) it was 25 µM (≈ 13.3 µg/mL); with Streptococcus pyogenes, 0.39 µM (≈ 0.208 µg/mL). Besides, the MIC was 3.1 µM (≈ 1.65 µg/mL) in the assay with Haemophilus influenzae, over 200 µM with Klebsiella pneumoniae, over 200 µM in the assay with Escherichia coli and over 200 µM in the assay with Pseudomonas aeruginosa.
